Results published in paper PMC4942781, “A sodium channel inhibitor ISTX-I with a novel structure provides a new hint at the evolutionary link between two toxin folds” (Scientific Reports, 2016).
Entries after “also recorded” stand apart in the source; their conditions may differ. Bridge positions count the residues as written; N and C are the ends. Ends that are not written are not given here.

Assays:
[1] = test system: sodium channels; experiment: Selectivity and mode of action on sodium channels, summary statements; type: cell-based
Experimental: (§1) Rat DRG cells were acutely dissociated from adult Sprague-Dawley rats[30]. Briefly, adult rats of either sex with body weights of approximately 200 g were killed by decapitation. The dorsal root ganglia were isolated quickly from the spinal cord and then transferred into Dulbecco’s modified Eagle’s medium (DMEM) containing trypsin I (0.15 mg/mL) and collagenase II (0.3 mg/mL) for incubation with an oscillation frequency of 200 rpm at 37 °C for 20 min. The trypsin inhibitor II-S (1 mg/mL) was added to terminate the reaction. The isolated DRG cells were split into 35 mm culture dishes with DMEM solution containing 10% fetal bovine serum (FBS) and were incubated in a CO2 incubator (5% CO2, 95% air, 37 °C) for 1–4 h before the patch-clamp experiment. […]
(§2) DRG neurons with a large diameter (>[…]) and those with a relatively small diameter (<[…]) were chosen by measuring TTX-s and TTX-r currents, respectively. […] Potassium, calcium, and sodium currents were recorded in experimental cells using whole-cell patch-clamp recordings at room temperature, which were performed with an HEK EPC10 patch-clamp amplifier. […] Experimental data were acquired and analyzed using the programs patch master and Sigmaplot 9.0 (Sigma, USA). […]
(§3) Currents were recorded from experimental cells using whole-cell patch clamptechnique at room temperature (22–25 °C). […]

[2] = test system: hNav1.4; experiment: Whole-cell patch clamp, hNav1.4 in HEK293T cells; type: cell-based, human; details: 10 μM ISTX-I; 50 ms step to -10 mV from -80 mV
Experimental: (§4) HEK293T (human embryonic kidney) cells were grown in DMEM containing 10% heat-inactivated FBS at 37 °C in a 5% CO2 incubator. The cDNA genes encoding human (h)Nav1.1, (h)Nav1.2, (h)Nav1.3, (h)Nav1.4, (h)Nav1.5, (h)Nav1.6 and (h)Nav1.7 were transiently transfected into HEK293T cells for electrophysiology using Lipofectamine-2000 (Invitrogen) in serum-reduced medium (Opti-MEM, Invitrogen) following the manufacturer’s instructions. The auxiliary subunits hβ1 and enhanced green florescent protein plasmids were cotransfected into HEK293T cells to increase the current density and efficiently select cells with green florescent protein for whole-cell patch-clamp recordings. After 12 h, the HEK293T cells were used for electrophysiological analysis.
as §2, §3

[3] = test system: hNav1.1; experiment: Whole-cell patch clamp, hNav1.1 in HEK293T cells; type: cell-based, human; details: 10 μM ISTX-I; 50 ms step to -10 mV from -80 mV
Experimental: as §4, §2, §3

[4] = test system: hNav1.6; experiment: Whole-cell patch clamp, hNav1.6 in HEK293T cells; type: cell-based, human; details: 10 μM ISTX-I; 50 ms step to -10 mV from -80 mV
Experimental: as §4, §2, §3

[5] = test system: calcium channel; experiment: Whole-cell patch clamp, Cav currents in DRG neurons; type: cell-based, rat; details: 20 μM ISTX-I, 150 ms step depolarization to +10 mV from −90 mV, Ba2+ as charge carrier
Experimental: as §1, with “reaction.” for “reaction. The isolated DRG cells were split into 35 mm culture dishes with DMEM solution containing 10% fetal bovine serum (FBS) and were incubated in a CO2 incubator (5% CO2, 95% air, 37 °C) for 1–4 h before the patch-clamp experiment.”
as §2, §3
25, MgCl2 12, HEPES 10, and D-glucose 10 (pH 7.2). Calcium channel currents were measured using Ba2+ as the charge carrier. […]

In the case of “LCSENGDCAADECCVDTVFEGDMVTRSCEKTTGNFTECPGLTPIA (disulfide 2-14, 8-28, 13-38) [ISTX-I]”, the “shift of I-V and G-V curves upon inhibition of sodium channels (summary)” value [1] is reported as “without any shifts of the I-V and G-V curves”, the “sodium channel subtype selectivity (in words)” value [1] is reported as “not other sodium channel subtypes; also recorded: specific activity on Nav1.7 subtypes; also recorded: subtype-selective inhibitor of Nav1.7” and the “effect on hNav1.4” value [2] is reported as “no effect”. The “effect on hNav1.1” value [3] was “no effect”, the “inhibition of Nav1.6 currents” value [4] was 10% and the “effect on calcium channels” value [5] was “no obvious effects; also recorded: No effects were detected”.
